Patent publication US20230303549A1, “SUBSTITUTED HETEROARYLOXYPYRIDINES, THE SALTS THEREOF AND THEIR USE AS HERBICIDAL AGENTS” (Bayer Aktiengesellschaft, priority 2020, published 2023)

Columns and labels:
Assay type in all cases: in vivo
[1] = tested on: Alopecurus myosuroides (ALOMY); test: Pre-emergence herbicide efficacy at 80 g/ha, greenhouse pot test; conditions: visual scoring vs untreated control after about 3 weeks
Method in brief: (§1)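 Seeds were sown in pots and covered with soil, then the compound (WP or EC formulation) was sprayed onto the soil surface as an aqueous suspension or emulsion with 0.5% additive. Pots were kept in a greenhouse, and after about 3 weeks activity was scored visually versus untreated controls (100% = plants dead, 0% = like control).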

[2] = tested on: Avena fatua (AVEFA); test: as above; conditions: visual scoring vs untreated control after about 3 weeks
Method in brief: as §1

[3] = tested on: Abutilon theophrasti (ABUTH); test: as above; conditions: visual scoring vs untreated control after about 3 weeks
Method in brief: as §1

[4] = tested on: Veronica persica (VERPE); test: as above; conditions: visual scoring vs untreated control after about 3 weeks
Method in brief: as §1

[5] = tested on: Matricaria inodora (MATIN); test: as above; conditions: visual scoring vs untreated control after about 3 weeks
Method in brief: as §1

[6] = tested on: Amaranthus retroflexus (AMARE); test: as above; conditions: visual scoring vs untreated control after about 3 weeks
Method in brief: as §1

[7] = tested on: Setaria viridis (SETVI); test: as above; conditions: visual scoring vs untreated control after about 3 weeks
Method in brief: as §1

[8] = tested on: Digitaria sanguinalis (DIGSA); test: as above; conditions: visual scoring vs untreated control after about 3 weeks
Method in brief: as §1

[9] = tested on: Polygonum convolvulus (POLCO); test: as above; conditions: visual scoring vs untreated control after about 3 weeks
Method in brief: as §1

[10] = tested on: Viola tricolor (VIOTR); test: as above; conditions: visual scoring vs untreated control after about 3 weeks
Method in brief: as §1

[11] = tested on: Ipomoea purpurea (PHBPU); test: as above; conditions: visual scoring vs untreated control after about 3 weeks
Method in brief: as §1

[12] = tested on: Alopecurus myosuroides (ALOMY); test: Post-emergence herbicidal efficacy at 80 g/ha, greenhouse pot test; conditions: visual rating vs untreated control after about 3 weeks
Method in brief: (§2)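 Visual rating of activity versus untreated plants after about 3 greenhouse weeks, 0% meaning control-like and 100% meaning dead. Plants in sandy loam were sprayed at one-leaf stage (2–3 weeks post-sowing) with WP/EC compound suspensions or emulsions, 0.5% additive, 600 l/ha water.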

[13] = tested on: Veronica persica (VERPE); test: as above; conditions: visual rating vs untreated control after about 3 weeks
Method in brief: as §2

[14] = tested on: Amaranthus retroflexus (AMARE); test: as above; conditions: visual rating vs untreated control after about 3 weeks
Method in brief: as §2

[15] = tested on: Polygonum convolvulus (POLCO); test: as above; conditions: visual rating vs untreated control after about 3 weeks
Method in brief: as §2

[16] = tested on: Viola tricolor (VIOTR); test: as above; conditions: visual rating vs untreated control after about 3 weeks
Method in brief: as §2

[17] = tested on: Alopecurus myosuroides (ALOMY); test: Post-emergence herbicidal efficacy at 320 g/ha, greenhouse pot test; conditions: visual rating vs untreated control after about 3 weeks
Method in brief: (§3)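 Visual percent activity (0% = like control, 100% = plants dead) is scored about 3 weeks after treatment, relative to untreated plants. Compounds go on as wettable powder or emulsion concentrate with 0.5% additive at 600 liters per hectare water, at the one-leaf stage.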

[18] = tested on: Echinochloa crus-galli (ECHCG); test: as above; conditions: visual rating vs untreated control after about 3 weeks
Method in brief: as §3

[19] = tested on: Veronica persica (VERPE); test: as above; conditions: 320 g/ha, visual rating vs untreated control after about 3 weeks
Method in brief: as §3

[20] = tested on: Amaranthus retroflexus (AMARE); test: as above; conditions: visual rating vs untreated control after about 3 weeks
Method in brief: as §3

[21] = tested on: Stellaria media (STEME); test: as above; conditions: visual rating vs untreated control after about 3 weeks
Method in brief: as §3

[22] = tested on: Alopecurus myosuroides (ALOMY); test: Pre-emergence herbicide efficacy at 320 g/ha, greenhouse pot test; conditions: visual scoring vs untreated control after about 3 weeks
Method in brief: (§4)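 Weed seeds were sown in sandy loam in pots, one mono- or dicot species per pot, and covered with soil. WP or EC formulations were sprayed onto the soil surface as aqueous suspension or emulsion with 0.5% additive at 600 L/ha water. Visual scoring after about 3 weeks, % activity versus untreated controls.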

[23] = tested on: Echinochloa crus-galli (ECHCG); test: as above; conditions: visual scoring vs untreated control after about 3 weeks
Method in brief: as §4

[24] = tested on: Abutilon theophrasti (ABUTH); test: as above; conditions: visual scoring vs untreated control after about 3 weeks
Method in brief: as §4

[25] = tested on: Veronica persica (VERPE); test: as above; conditions: visual scoring vs untreated control after about 3 weeks
Method in brief: as §4

[26] = tested on: Matricaria inodora (MATIN); test: as above; conditions: visual scoring vs untreated control after about 3 weeks
Method in brief: as §4

[27] = tested on: Amaranthus retroflexus (AMARE); test: as above; conditions: visual scoring vs untreated control after about 3 weeks
Method in brief: as §4

[28] = tested on: Setaria viridis (SETVI); test: as above; conditions: visual scoring vs untreated control after about 3 weeks
Method in brief: as §4

[29] = tested on: Digitaria sanguinalis (DIGSA); test: as above; conditions: visual scoring vs untreated control after about 3 weeks
Method in brief: as §4

[30] = tested on: Stellaria media (STEME); test: as above; conditions: visual scoring vs untreated control after about 3 weeks
Method in brief: as §4

[31] = tested on: Poa annua (POAAN); test: as above; conditions: visual scoring vs untreated control after about 3 weeks
Method in brief: as §4

[32] = tested on: Bassia scoparia (KCHSC); test: Post-emergence herbicidal efficacy at 320 g/ha, greenhouse pot test; conditions: visual rating vs untreated control after about 3 weeks
Method in brief: as §3

[33] = tested on: Abutilon theophrasti (ABUTH); test: as above; conditions: visual rating vs untreated control after about 3 weeks
Method in brief: as §3

[34] = tested on: Lolium rigidum (LOLRI); test: as above; conditions: visual rating vs untreated control after about 3 weeks
Method in brief: as §3

[35] = tested on: Setaria viridis (SETVI); test: as above; conditions: visual rating vs untreated control after about 3 weeks
Method in brief: as §3

[36] = tested on: Poa annua (POAAN); test: as above; conditions: visual rating vs untreated control after about 3 weeks
Method in brief: as §3

[37] = tested on: Bassia scoparia (KCHSC); test: Pre-emergence herbicide efficacy at 320 g/ha, greenhouse pot test; conditions: dosage 1280 g/ha in Table C6, visual scoring after about 3 weeks
Method in brief: as §4

[38] = tested on: Echinochloa crus-galli (ECHCG); test: Pre-emergence herbicide efficacy at 80 g/ha, greenhouse pot test; conditions: visual scoring vs untreated control after about 3 weeks
Method in brief: as §1

[39] = tested on: Lolium rigidum (LOLRI); test: Pre-emergence herbicide efficacy at 320 g/ha, greenhouse pot test; conditions: visual scoring vs untreated control after about 3 weeks
Method in brief: as §4

[40] = tested on: Setaria viridis (SETVI); test: Post-emergence herbicidal efficacy at 80 g/ha, greenhouse pot test; conditions: visual rating vs untreated control after about 3 weeks
Method in brief: as §2

| SMILES | Pre-emergence efficacy against Alopecurus myosuroides (ALOMY) [1] [%] | Pre-emergence efficacy against Abutilon theophrasti (ABUTH) [3] [%] | Pre-emergence efficacy against Veronica persica (VERPE) [4] [%] | Pre-emergence efficacy against Matricaria inodora (MATIN) [5] [%] | Pre-emergence efficacy against Amaranthus retroflexus (AMARE) [6] [%] | Pre-emergence efficacy against Setaria viridis (SETVI) [7] [%] | Pre-emergence efficacy against Polygonum convolvulus (POLCO) [9] [%] | Pre-emergence efficacy against Viola tricolor (VIOTR) [10] [%] | Post-emergence efficacy against Amaranthus retroflexus (AMARE) [14] [%] | Post-emergence efficacy against Veronica persica (VERPE) [19] [%] | Post-emergence efficacy against Amaranthus retroflexus (AMARE) [20] [%] | Post-emergence action against Stellaria media (STEME) [21] [%] | Pre-emergence efficacy against Echinochloa crus-galli (ECHCG) [23] [%] | Pre-emergence efficacy against Abutilon theophrasti (ABUTH) [24] [%] | Pre-emergence efficacy against Veronica persica (VERPE) [25] [%] | Pre-emergence efficacy against Matricaria inodora (MATIN) [26] [%] | Pre-emergence efficacy against Amaranthus retroflexus (AMARE) [27] [%] | Pre-emergence efficacy against Setaria viridis (SETVI) [28] [%] | Pre-emergence efficacy against Stellaria media (STEME) [30] [%] | Pre-emergence efficacy against Poa annua (POAAN) [31] [%] | also measured |
| --- | --- | --- | --- | --- | --- | --- | --- | --- | --- | --- | --- | --- | --- | --- | --- | --- | --- | --- | --- | --- | --- |
| Cc1cc(C)c(-c2cc(C(F)F)no2)c(Oc2ncc(F)cn2)n1 [Example I-4] | 90 | 100 | 100 | 90 | 100 | 100 | 90 | 100 | 100 |  |  |  |  |  |  |  |  |  |  |  | Pre-emergence efficacy against Avena fatua (AVEFA) [2]: 80%; Pre-emergence efficacy against Digitaria sanguinalis (DIGSA) [8]: 100%; Pre-emergence efficacy against Ipomoea purpurea (PHBPU) [11]: 80%; Post-emergence efficacy against Alopecurus myosuroides (ALOMY) [12]: 90%; Post-emergence efficacy against Veronica persica (VERPE) [13]: 90%; Post-emergence efficacy against Polygonum convolvulus (POLCO) [15]: 90%; Post-emergence efficacy against Viola tricolor (VIOTR) [16]: 80% |
| Cc1cc(C)c(-c2cc(C(F)(F)F)on2)c(Oc2ncc(Cl)cn2)n1 [Example I-7] | 100 | 100 | 90 | 90 | 100 | 100 | 90 | 100 | 80 | 100 | 90 | 100 | 100 | 100 | 100 | 100 | 100 | 100 | 100 | 100 | Post-emergence efficacy against Alopecurus myosuroides (ALOMY) [17]: 90%; Post-emergence efficacy against Echinochloa crus-galli (ECHCG) [18]: 90%; Pre-emergence efficacy against Alopecurus myosuroides (ALOMY) [22]: 90%; Pre-emergence efficacy against Digitaria sanguinalis (DIGSA) [29]: 100%; Post-emergence efficacy against Alopecurus myosuroides (ALOMY) [12]: 90%; Post-emergence efficacy against Viola tricolor (VIOTR) [16]: 90% |
| Cc1cc(C)c(-c2cc(C(F)F)no2)c(Oc2ncc(Br)cn2)n1 [Example I-41] | 80 | 80 | 80 | 80 | 100 | 80 | 90 | 80 | 90 | 100 | 100 | 100 | 90 | 100 | 100 | 100 | 100 | 100 | 100 | 100 | Post-emergence efficacy against Bassia scoparia (KCHSC) [32]: 100%; Post-emergence efficacy against Abutilon theophrasti (ABUTH) [33]: 90%; Post-emergence efficacy against Lolium rigidum (LOLRI) [34]: 90%; Post-emergence efficacy against Setaria viridis (SETVI) [35]: 90%; Post-emergence efficacy against Poa annua (POAAN) [36]: 100%; Pre-emergence efficacy against Alopecurus myosuroides (ALOMY) [22]: 90%; Pre-emergence efficacy against Bassia scoparia (KCHSC) [37]: 100%; Post-emergence efficacy against Veronica persica (VERPE) [13]: 90%; Post-emergence efficacy against Polygonum convolvulus (POLCO) [15]: 80% |
| Cc1cc(C)c(-c2cc(C(F)F)no2)c(Oc2ccc(Cl)cn2)n1 [Example I-43] |  |  | 90 | 90 | 100 | 90 |  | 80 |  | 100 | 100 | 100 | 90 | 100 | 100 | 90 | 100 | 100 | 100 | 100 | Post-emergence efficacy against Alopecurus myosuroides (ALOMY) [17]: 90%; Post-emergence efficacy against Echinochloa crus-galli (ECHCG) [18]: 90%; Post-emergence efficacy against Abutilon theophrasti (ABUTH) [33]: 90%; Post-emergence efficacy against Poa annua (POAAN) [36]: 90%; Pre-emergence efficacy against Bassia scoparia (KCHSC) [37]: 100%; Post-emergence efficacy against Viola tricolor (VIOTR) [16]: 80% |
| Cc1cc(C)c(-n2cc(I)cn2)c(Oc2ncc(F)cn2)n1 [Example I-294] | 90 | 90 |  | 100 | 100 | 100 | 90 | 100 | 80 | 100 | 100 | 100 | 100 | 100 | 100 | 100 | 100 | 100 | 100 | 100 | Pre-emergence efficacy against Echinochloa crus-galli (ECHCG) [38]: 90%; Pre-emergence efficacy against Ipomoea purpurea (PHBPU) [11]: 100%; Post-emergence efficacy against Abutilon theophrasti (ABUTH) [33]: 90%; Post-emergence efficacy against Poa annua (POAAN) [36]: 90%; Pre-emergence efficacy against Bassia scoparia (KCHSC) [37]: 100%; Pre-emergence efficacy against Lolium rigidum (LOLRI) [39]: 100%; Post-emergence efficacy against Setaria viridis (SETVI) [40]: 90%; Post-emergence efficacy against Polygonum convolvulus (POLCO) [15]: 80% |
